Test system: a variety of test species
Assay: Pre-emergence herbicidal activity (glasshouse, sprayed one day after sowing, evaluated after 13 days)
Format: in vivo
Design: key: 5=total damage to plant; 0=no damage to plant
Settings: ABUTH, application pre-emergence, rate 1000 g/Ha, scale 0-5
Outline: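 Seeds sown in standard soil in pots, held one day in glasshouse (24/16 °C day/night, 14 h light, 65% humidity), then sprayed with aqueous solution of compound formulated in acetone/water 50:50 with 0.5% Tween 20. Grown on under same conditions, watered twice daily; damage scored after 13 days (0 = none, 5 = total).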

Compound | Pre-emergence herbicidal damage score, ABUTH
CCC(C)(C)c1onc(N2C(=O)C(Cl)=C(C)C2O)c1C#N (centres unmarked) [A40] | 4
C=CC(C)(C)c1cc(N2C(=O)C(Cl)=C(C)C2O)no1 (centres unmarked) [A41] | 5
CC1=C(Cl)C(=O)N(c2cc(C(C)(C)C#N)on2)C1O (centres unmarked) [A42] | 5
CCC(C)(CC)c1cc(N2C(=O)C(Cl)=C(C)C2O)no1 (centres unmarked) [A43] | 4
CC1=C(Cl)C(=O)N(c2noc(C(C)C)c2C#N)C1O (centres unmarked) [A44, 3-(4-chloro-2-hydroxy-3-methyl-5-oxo-2H-pyrrol-1-yl)-5-isopropyl-isoxazole-4-carbonitrile] | 5

Same assay, conditions: ALOMY, application pre-emergence, rate 1000 g/Ha, scale 0-5

Compound | Pre-emergence herbicidal damage score, ALOMY
CCC(C)(C)c1onc(N2C(=O)C(Cl)=C(C)C2O)c1C#N (centres unmarked) [A40] | 3
C=CC(C)(C)c1cc(N2C(=O)C(Cl)=C(C)C2O)no1 (centres unmarked) [A41] | 4
CC1=C(Cl)C(=O)N(c2cc(C(C)(C)C#N)on2)C1O (centres unmarked) [A42] | 4
CCC(C)(CC)c1cc(N2C(=O)C(Cl)=C(C)C2O)no1 (centres unmarked) [A43] | 4
CC1=C(Cl)C(=O)N(c2noc(C(C)C)c2C#N)C1O (centres unmarked) [A44, 3-(4-chloro-2-hydroxy-3-methyl-5-oxo-2H-pyrrol-1-yl)-5-isopropyl-isoxazole-4-carbonitrile] | 4

Same assay, conditions: AMARE, application pre-emergence, rate 1000 g/Ha, scale 0-5

Compound | Pre-emergence herbicidal damage score, AMARE
CCC(C)(C)c1onc(N2C(=O)C(Cl)=C(C)C2O)c1C#N (centres unmarked) [A40] | 5
C=CC(C)(C)c1cc(N2C(=O)C(Cl)=C(C)C2O)no1 (centres unmarked) [A41] | 5
CC1=C(Cl)C(=O)N(c2cc(C(C)(C)C#N)on2)C1O (centres unmarked) [A42] | 5
CCC(C)(CC)c1cc(N2C(=O)C(Cl)=C(C)C2O)no1 (centres unmarked) [A43] | 5
CC1=C(Cl)C(=O)N(c2noc(C(C)C)c2C#N)C1O (centres unmarked) [A44, 3-(4-chloro-2-hydroxy-3-methyl-5-oxo-2H-pyrrol-1-yl)-5-isopropyl-isoxazole-4-carbonitrile] | 5

Same assay, conditions: ECHCG, application pre-emergence, rate 1000 g/Ha, scale 0-5

Compound | Pre-emergence herbicidal damage score, ECHCG
CCC(C)(C)c1onc(N2C(=O)C(Cl)=C(C)C2O)c1C#N (centres unmarked) [A40] | 5
C=CC(C)(C)c1cc(N2C(=O)C(Cl)=C(C)C2O)no1 (centres unmarked) [A41] | 4
CC1=C(Cl)C(=O)N(c2cc(C(C)(C)C#N)on2)C1O (centres unmarked) [A42] | 4
CCC(C)(CC)c1cc(N2C(=O)C(Cl)=C(C)C2O)no1 (centres unmarked) [A43] | 4
CC1=C(Cl)C(=O)N(c2noc(C(C)C)c2C#N)C1O (centres unmarked) [A44, 3-(4-chloro-2-hydroxy-3-methyl-5-oxo-2H-pyrrol-1-yl)-5-isopropyl-isoxazole-4-carbonitrile] | 4

Same assay, conditions: SETFA, application pre-emergence, rate 1000 g/Ha, scale 0-5

Compound | Pre-emergence herbicidal damage score, SETFA
CCC(C)(C)c1onc(N2C(=O)C(Cl)=C(C)C2O)c1C#N (centres unmarked) [A40] | 5
C=CC(C)(C)c1cc(N2C(=O)C(Cl)=C(C)C2O)no1 (centres unmarked) [A41] | 5
CC1=C(Cl)C(=O)N(c2cc(C(C)(C)C#N)on2)C1O (centres unmarked) [A42] | 5
CCC(C)(CC)c1cc(N2C(=O)C(Cl)=C(C)C2O)no1 (centres unmarked) [A43] | 5
CC1=C(Cl)C(=O)N(c2noc(C(C)C)c2C#N)C1O (centres unmarked) [A44, 3-(4-chloro-2-hydroxy-3-methyl-5-oxo-2H-pyrrol-1-yl)-5-isopropyl-isoxazole-4-carbonitrile] | 5

Same assay, conditions: ZEAMX, application pre-emergence, rate 1000 g/Ha, scale 0-5

Compound | Pre-emergence herbicidal damage score, ZEAMX
CCC(C)(C)c1onc(N2C(=O)C(Cl)=C(C)C2O)c1C#N (centres unmarked) [A40] | 2
C=CC(C)(C)c1cc(N2C(=O)C(Cl)=C(C)C2O)no1 (centres unmarked) [A41] | 3
CC1=C(Cl)C(=O)N(c2cc(C(C)(C)C#N)on2)C1O (centres unmarked) [A42] | 2
CCC(C)(CC)c1cc(N2C(=O)C(Cl)=C(C)C2O)no1 (centres unmarked) [A43] | 2
CC1=C(Cl)C(=O)N(c2noc(C(C)C)c2C#N)C1O (centres unmarked) [A44, 3-(4-chloro-2-hydroxy-3-methyl-5-oxo-2H-pyrrol-1-yl)-5-isopropyl-isoxazole-4-carbonitrile] | 3

Test system: a variety of test species
Assay: Post-emergence herbicidal activity (glasshouse, sprayed after 8 days cultivation, evaluated after 13 days)
Format: in vivo
Design: key: 5=total damage to plant; 0=no damage to plant
Settings: Abutilon theophrasti, rate 1000 g/Ha, scale 0-5
Outline: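 Foliar application to 8-day-old plants using a 0.5% Tween 20 acetone/water carrier; phytotoxicity is scored visually from 0 to 5 after 13 days of growth at 24/16 °C day/night.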

Compound | ABUTH (Abutilon theophrasti) damage score, application post-emergence
CCC(C)(C)c1onc(N2C(=O)C(Cl)=C(C)C2O)c1C#N (centres unmarked) [A40] | 5
C=CC(C)(C)c1cc(N2C(=O)C(Cl)=C(C)C2O)no1 (centres unmarked) [A41] | 5
CC1=C(Cl)C(=O)N(c2cc(C(C)(C)C#N)on2)C1O (centres unmarked) [A42] | 5
CCC(C)(CC)c1cc(N2C(=O)C(Cl)=C(C)C2O)no1 (centres unmarked) [A43] | 5
CC1=C(Cl)C(=O)N(c2noc(C(C)C)c2C#N)C1O (centres unmarked) [A44, 3-(4-chloro-2-hydroxy-3-methyl-5-oxo-2H-pyrrol-1-yl)-5-isopropyl-isoxazole-4-carbonitrile] | 5

Same assay, conditions: Alopecurus myosuroides, rate 1000 g/Ha, scale 0-5

Compound | ALOMY (Alopecurus myosuroides) damage score, application post-emergence
CCC(C)(C)c1onc(N2C(=O)C(Cl)=C(C)C2O)c1C#N (centres unmarked) [A40] | 4
C=CC(C)(C)c1cc(N2C(=O)C(Cl)=C(C)C2O)no1 (centres unmarked) [A41] | 5
CC1=C(Cl)C(=O)N(c2cc(C(C)(C)C#N)on2)C1O (centres unmarked) [A42] | 5
CCC(C)(CC)c1cc(N2C(=O)C(Cl)=C(C)C2O)no1 (centres unmarked) [A43] | 5
CC1=C(Cl)C(=O)N(c2noc(C(C)C)c2C#N)C1O (centres unmarked) [A44, 3-(4-chloro-2-hydroxy-3-methyl-5-oxo-2H-pyrrol-1-yl)-5-isopropyl-isoxazole-4-carbonitrile] | 5

Same assay, conditions: Amaranthus retroflexus, rate 1000 g/Ha, scale 0-5

Compound | AMARE (Amaranthus retroflexus) damage score, application post-emergence
CCC(C)(C)c1onc(N2C(=O)C(Cl)=C(C)C2O)c1C#N (centres unmarked) [A40] | 5
C=CC(C)(C)c1cc(N2C(=O)C(Cl)=C(C)C2O)no1 (centres unmarked) [A41] | 5
CC1=C(Cl)C(=O)N(c2cc(C(C)(C)C#N)on2)C1O (centres unmarked) [A42] | 5
CCC(C)(CC)c1cc(N2C(=O)C(Cl)=C(C)C2O)no1 (centres unmarked) [A43] | 5
CC1=C(Cl)C(=O)N(c2noc(C(C)C)c2C#N)C1O (centres unmarked) [A44, 3-(4-chloro-2-hydroxy-3-methyl-5-oxo-2H-pyrrol-1-yl)-5-isopropyl-isoxazole-4-carbonitrile] | 5

Same assay, conditions: Echinochloa crus-galli, rate 1000 g/Ha, scale 0-5

Compound | ECHCG (Echinochloa crus-galli) damage score, application post-emergence
CCC(C)(C)c1onc(N2C(=O)C(Cl)=C(C)C2O)c1C#N (centres unmarked) [A40] | 5
C=CC(C)(C)c1cc(N2C(=O)C(Cl)=C(C)C2O)no1 (centres unmarked) [A41] | 5
CC1=C(Cl)C(=O)N(c2cc(C(C)(C)C#N)on2)C1O (centres unmarked) [A42] | 5
CCC(C)(CC)c1cc(N2C(=O)C(Cl)=C(C)C2O)no1 (centres unmarked) [A43] | 5
CC1=C(Cl)C(=O)N(c2noc(C(C)C)c2C#N)C1O (centres unmarked) [A44, 3-(4-chloro-2-hydroxy-3-methyl-5-oxo-2H-pyrrol-1-yl)-5-isopropyl-isoxazole-4-carbonitrile] | 5

Same assay, conditions: Setaria faberi, rate 1000 g/Ha, scale 0-5

Compound | SETFA (Setaria faberi) damage score, application post-emergence
CCC(C)(C)c1onc(N2C(=O)C(Cl)=C(C)C2O)c1C#N (centres unmarked) [A40] | 5
C=CC(C)(C)c1cc(N2C(=O)C(Cl)=C(C)C2O)no1 (centres unmarked) [A41] | 5
CC1=C(Cl)C(=O)N(c2cc(C(C)(C)C#N)on2)C1O (centres unmarked) [A42] | 5
CCC(C)(CC)c1cc(N2C(=O)C(Cl)=C(C)C2O)no1 (centres unmarked) [A43] | 5
CC1=C(Cl)C(=O)N(c2noc(C(C)C)c2C#N)C1O (centres unmarked) [A44, 3-(4-chloro-2-hydroxy-3-methyl-5-oxo-2H-pyrrol-1-yl)-5-isopropyl-isoxazole-4-carbonitrile] | 5

Same assay, conditions: Zea mays, rate 1000 g/Ha, scale 0-5

Compound | ZEAMX (Zea mays) damage score, application post-emergence
CCC(C)(C)c1onc(N2C(=O)C(Cl)=C(C)C2O)c1C#N (centres unmarked) [A40] | 3
C=CC(C)(C)c1cc(N2C(=O)C(Cl)=C(C)C2O)no1 (centres unmarked) [A41] | 4
CC1=C(Cl)C(=O)N(c2cc(C(C)(C)C#N)on2)C1O (centres unmarked) [A42] | 4
CCC(C)(CC)c1cc(N2C(=O)C(Cl)=C(C)C2O)no1 (centres unmarked) [A43] | 2
CC1=C(Cl)C(=O)N(c2noc(C(C)C)c2C#N)C1O (centres unmarked) [A44, 3-(4-chloro-2-hydroxy-3-methyl-5-oxo-2H-pyrrol-1-yl)-5-isopropyl-isoxazole-4-carbonitrile] | 4

Test system: not given
Assay: not given
Settings: not given

Compound | melting point
CCC(C)(C)c1onc(N2C(=O)C(Cl)=C(C)C2O)c1C#N (centres unmarked) [A40] | 166 to 168 °C
C=CC(C)(C)c1cc(N2C(=O)C(Cl)=C(C)C2O)no1 (centres unmarked) [A41] | 114 to 116 °C
CC1=C(Cl)C(=O)N(c2cc(C(C)(C)C#N)on2)C1O (centres unmarked) [A42] | 145 to 147 °C
CCC(C)(CC)c1cc(N2C(=O)C(Cl)=C(C)C2O)no1 (centres unmarked) [A43] | 104 to 106 °C
CC1=C(Cl)C(=O)N(c2noc(C(C)C)c2C#N)C1O (centres unmarked) [A44, 3-(4-chloro-2-hydroxy-3-methyl-5-oxo-2H-pyrrol-1-yl)-5-isopropyl-isoxazole-4-carbonitrile] | 117 to 119 °C
